Assay results as given in publication PMC10868801, “Characterization of covalent inhibitors that disrupt the interaction between the tandem SH2 domains of SYK and FCER1G phospho-ITAM” (PLOS ONE, 2024).
≈ marks a conversion by molar mass, not a printed value. Where two headings read alike, the source gives them in different places. Non-standard residues stand in square brackets, D forms with d. Residues, ends and D or L forms follow the SMILES beside them. Primed or numbered codes have the meaning given here. No end group written: not given here. pY = N[C@@H](Cc1ccc(OP(=O)(O)O)cc1)C(=O)O; FITC′ = not defined here

Tests used:
[1] = test system: primary neuron-glia cultures; design: method as in PMID 37009452; conditions: cited from earlier work
[2] = test system: SH-SY5Y cells; design: method as in PMID 31324720; conditions: 5 μM, cited from earlier work
[3] = test system: Tg Tau P301S mice; conditions: cited from earlier work
[4] = target: T1, SYK-tSH2 / FCER1G p-ITAM interaction (Homo sapiens, UniProt P43405); test: TR-FRET assay of 6xHis-SYK-tSH2 with FITC-labeled FCER1G p-ITAM peptide; type: biochemical
T1 construct: the tSH2 domain of SYK (residues M6-N269) fused to an N-terminal 6×His tag; made in house; host or cells: E. coli BL21(DE3)-R3-pRARE
Excerpt: To facilitate identification of inhibitors of the SYK-FCER1G interaction, we developed a TR-FRET assay using recombinant protein comprising the tSH2 domain of SYK (residues M6-N269) fused to an N-terminal 6×His tag (S1A Fig). The TR-FRET assay is based on the interaction of a FITC-labeled FCER1G p-ITAM peptide to the 6×His-SYK-tSH2 protein in complex with a terbium-conjugated anti-His antibody (Tb-Ab) (Fig 3B). Once excited, a TR-FRET signal is generated from the Tb donor to the FITC acceptor fluorophore. […] To enable uHTS for large scale screening of small molecule libraries, we miniaturized the TR-FRET assay from 96-well plate format to a 1536-well.
TR-FRET experiments were performed in 20 μL reactions, using 384-well shallow-well microplates (PerkinElmer). Final reaction components contained 6xHis-SYK-tSH2 (SYKA-c020 tagged) (4 nM), FITC-conjugated FCER1G peptide (8 nM), Tb-conjugated anti-6xHis antibody (53 ng/ml; Cisbio) in assay buffer containing 25 mM HEPES (pH 7.5), 200 mM NaCl, 0.1% BSA and 0.05% Tween-20. After a 2h incubation (at room temperature), TR-FRET signals were measured on a BMG Labtech PHERAstar FSX reader using a Lanthascreen Optics Module. A 200 μs delay was used after excitation with a flash lamp before measurement of fluorescence emission at […]. TR-FRET ratios of fluorescent intensity at 520 nm to 490 nm were calculated. The half maximal inhibitory concentration (IC50) was determined by fitting a four parametric logistic curve to the data.

[5] = target: T2, full length SYK and FCER1G (Homo sapiens, UniProt P43405); test: GST pull-down (GST-PD) of GST-SYK and FCER1G-Flag from HEK293T cell lysates; type: biochemical; conditions: for PPI disruption in GST-PD: dose-response format; for Inhibition of SYK-GST / FCER1G-Flag interaction in pulldown: single concentration (100 μM)
T2 construct: full length GST-SYK and FCER1G-Flag were co-expressed in HEK293 cells prior to lysis; expressed in transfected cells; host or cells: HEK293T (CRL-3216, ATCC)
Procedure: Pull-down assays were used as an orthogonal assay to determine if the compounds could disrupt the PPI between full length SYK and FCER1G proteins from cell lysates. To optimize GST pulldown assays, full length GST-SYK and FCER1G-Flag were co-expressed in HEK293 cells prior to lysis and the protein expression and cell lysate concentrations tested (Fig 4A). All 40 compounds that progressed from uHTS were tested via GST-PD at a single concentration (100 μM) to determine if they could inhibit the PPI between the full-length proteins, with the p-ITAM FCER1G peptide used as a positive control (Fig 4B). […] Compound 24 contains a promiscuous maleimide, which is well known to react indiscriminately with proteins.
GST-, VF-tagged human SYK and FCER1G plasmids for mammalian expression were generated using Gateway cloning technology (Invitrogen) as described previously. The DNA was purified using ZymoPURE Plasmid Maxiprep Kit (D4203, Zymo Research).
WB secondary antibodies: peroxidase-conjugated AffiniPure Goat Anti-Mouse IgG (H+L) (115-035-003, Jackson Immuno Research) 1:5000 dilution in TBST. GST pulldown was performed as described with minor changes. HEK293T (CRL-3216, ATCC) were cultured in Dulbecco’s modified Eagle’s medium with 4.5 g/L glucose, L-glutamine, and sodium pyruvate (10–013-CV, Corning) supplemented with 10% fetal bovine serum and 1% penicillin/streptomycin solution (30–002-CI, CellGro). Cells were incubated at 37°C in humidified conditions with 5% CO2. The HEK293T cells were transfected using 1 mg/mL Polyethylenimine (PEI; 23966, Polysciences) in a ratio of 3 μL to 1 μg DNA. The proteins were expressed for 48 h at 37°C. Cell pellets were re-suspended in the SYK lysis buffer (25 mM HEPES, pH 7.5, 200 mM NaCl, 0.5% Triton X100 (T9284-1L, Sigma-Aldrich), followed by sonication for 10 s (5 s on, 5 s off) at 4°C. Cells were pelleted by 10 min centrifugation at 13,000 rpm at 4°C. The cleared lysates were first pre-incubated with compounds for 30 min and then incubated with glutathione sepharose 4B beads (17075605, Cytiva Sweden AB) at 4°C for 2 h with rotation. After the incubation, beads were washed three times with the SYK lysis buffer, eluted by boiling in sodium dodecyl sulfate-polyacrylamide gel electrophoresis (SDS–PAGE) loading buffer (1610737, Bio-Rad), and analyzed by western blotting.

[6] = target: T3, SYK-tSH2 (Homo sapiens, UniProt P43405); test: Covalent labelling and intact mass spectrometry; type: binding; design: tandem SH2 domains of human SYK (residues M6-N269); 6xHis (N, cleaved yes); made in house; host or cells: E. coli BL21(DE3)-R3-pRARE; conditions: 100 μM, 1 h; for Number of mass adducts on SYK-tSH2: room temperature
Excerpt: The HTS hits 13 and 37 contain a kojic acid moiety, which is proposed to react covalently with proteins in the literature. As a result, we thought that it was likely these compounds are also reacting covalently with SYK-tSH2. […] When bound to the protein, these kojic acid-derived compounds have a 94 Da decrease in mass due to the loss of the pyridin-2-amine leaving group to reveal a Michael acceptor that can react covalently with cysteine residues (Fig 5B).
To expand on the initial 40 putative hits that were identified via uHTS (Fig 3D), additional commercially available structural analogues were ordered and screened via TR-FRET and differential scanning fluorimetry (DSF) (S1 Table). […] The observation of a substantial reduction in protein melting temperature motivated us to determine if the compounds interacted covalently with the SYK-tSH2 domains. Additionally, since the thiourea in these small molecules is reported to react via oxidation, the compounds could be capable of forming a covalent disulfide bond with cysteine residues on SYK [39]. We used compound 1, which is a known covalent modifier of SYK-tSH2, as a positive control in the mass spectrometry analysis. […] Literature reports support that this type of chemical reaction can occur in DMSO, forming a disulfide bond. […] Like we had originally observed for the older DMSO stock solution of 42 (Fig 6C), 44 forms two to four mass adducts (422 Da and 844 Da) more than the protein mass when incubated SYK-tSH2 for 1 h (Fig 6D). […] Due to the mass adducts of two to four (422 Da and 844 Da), we propose that 44 is forming a disulfide bond with between two or four cysteines on SYK-tSH2 (Fig 6G).

[7] = Compound solubility with nephelometer; type: physicochemical; conditions: aqueous buffer, kinetic from dmso stock, PBS, 90 min at room temperature
Procedure: Stock compound (10 mM in DMSO) was serial diluted in PBS (21-040-CV, Corning) in 96-well Costar Assay plate (3904, Corning). After incubating compound in PBS for 90 min at room temperature, the Nephelometric turbidity units (NTUs) were measured with NEPHELOstar (BMG LABTECH, Cary, North Carolina). 0.2 s was used for a measure time and PBS only as the background. Each sample was tested in triplicate. Dose-response data was analyzed by GraphPad Prism and the solubility concentration is defined at the concentration that increases the NTUs at the turning point of the curve.

[8] = target: MSN (Homo sapiens, UniProt P26038); test: Covalent labelling and intact mass spectrometry (selectivity); conditions: 100 μM, 1 h, room temperature; four available cysteines
MSN, sequence (P26038 whole entry, species assumed): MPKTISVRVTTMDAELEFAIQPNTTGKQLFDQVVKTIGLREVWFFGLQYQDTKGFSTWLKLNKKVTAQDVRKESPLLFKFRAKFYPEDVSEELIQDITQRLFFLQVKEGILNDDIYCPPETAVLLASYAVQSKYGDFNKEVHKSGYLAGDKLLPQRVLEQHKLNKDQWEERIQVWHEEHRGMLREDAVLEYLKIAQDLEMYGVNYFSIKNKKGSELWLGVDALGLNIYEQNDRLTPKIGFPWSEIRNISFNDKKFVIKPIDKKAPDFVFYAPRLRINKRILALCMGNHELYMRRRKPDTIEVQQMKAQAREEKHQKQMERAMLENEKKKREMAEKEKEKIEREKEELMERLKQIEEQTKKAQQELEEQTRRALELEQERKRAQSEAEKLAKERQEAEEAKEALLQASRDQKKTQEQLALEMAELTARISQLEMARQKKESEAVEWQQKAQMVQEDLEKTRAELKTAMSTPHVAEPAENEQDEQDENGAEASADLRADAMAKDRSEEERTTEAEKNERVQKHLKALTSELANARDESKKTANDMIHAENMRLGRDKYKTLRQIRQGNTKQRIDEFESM

[9] = target: T3, SYK-tSH2; test: Bio-layer interferometry (BLI) direct binding; conditions: biotinylated SYK-tSH2
[10] = LCMS characterization of fresh versus older DMSO stocks; type: physicochemical; conditions: older DMSO stocks versus freshly prepared solutions
Excerpt: To expand on the initial 40 putative hits that were identified via uHTS (Fig 3D), additional commercially available structural analogues were ordered and screened via TR-FRET and differential scanning fluorimetry (DSF) (S1 Table). […] The observation of a substantial reduction in protein melting temperature motivated us to determine if the compounds interacted covalently with the SYK-tSH2 domains. Additionally, since the thiourea in these small molecules is reported to react via oxidation, the compounds could be capable of forming a covalent disulfide bond with cysteine residues on SYK [39]. We used compound 1, which is a known covalent modifier of SYK-tSH2, as a positive control in the mass spectrometry analysis. […] Literature reports support that this type of chemical reaction can occur in DMSO, forming a disulfide bond. […]
Supplementary file pone.0293548.s005.tiff: S4 Fig Identification of active disulfide compounds which form in DMSO solutions of compounds 42 and 43. […] LCMS Calculated for [M+H]^+ C7H9N4O2S: 213.04; observed: 213.1 [M+H]^+. […] LCMS Calculated for [M+H]^+ C14H15N8O4S2: 423.06; observed: 423.0 [M+H]^+. […] LCMS Calculated for [M+H]^+ C10H15N4O2S: 255.08; observed: 255.1 [M+H]^+. […] LCMS Calculated for [M+H]^+ C20H27N8O4S2: 507.15; observed: 507.1 [M+H]^+. […]

[11] = target: 6xHis-SYK-tSH2 (tandem SH2 domains of human SYK, residues M6-N269, SYKA-c020 tagged) (human) (UniProt P43405); test: AlphaScreen or HTRF; TR-FRET competition: 6xHis-SYK-tSH2 4 nM with Tb-conjugated anti-6xHis antibody, FITC-conjugated FCER1G peptide 8 nM, unlabeled peptide titrated; 25 mM HEPES pH 7.5, 200 mM NaCl, 0.1% BSA, 0.05% Tween-20; 2 h at room temperature
[12] = competition of FITC-labeled FCER1G p-ITAM peptide by unlabeled peptide

Compound: COc1ccc(-c2cc3nccn3c(Nc3ncccc3C(N)=O)n2)cc1OC.Cl.Cl [BAY61-3606, 2-[7-(3,4-Dimethoxyphenyl)-imidazo[1,2-c]pyrimidin-5-ylamino]nicotinamide Dihydrochloride]
- Microglial-mediated phagocytosis of synapses and neurons [1]: reduced microglial-mediated phagocytosis of synapses and neurons
- LPS-induced neuronal loss ([1]; primary neuron-glia cultures): prevented lipopolysaccharide (LPS)-induced neuronal loss
- p-AKT, p-mTOR and p-p70 S6K levels [2]: reduces p-AKT, p-mTOR, and p-p70 S6K levels
- Phosphorylated and total tau levels ([2]; in vitro): reduces phosphorylated and total tau levels
- Levels of phospho-tau and total tau ([3]; Tg Tau P301S mice, 20 mg/kg, 12 weeks): reduced levels of phospho-tau (p-tau) and total tau (t-tau)
- Effect in mouse tauopathy models ([3]; mouse tauopathy models): decreased tau accumulation, neuronal and synaptic loss, neuroinflammation, and reversed defective autophagy

Compound: CC(C)C[C@H](NC(=O)CNC(=O)[C@@H](NC(=O)[C@H](Cc1ccc(OP(=O)(O)O)cc1)NC(=O)[C@@H](NC(=O)CNC(=O)[C@@H](N)CC(=O)O)C(C)C)[C@@H](C)O)C(=O)N[C@@H](CO)C(=O)N[C@H](C(=O)N[C@@H](CCCNC(=N)N)C(=O)N[C@@H](CC(N)=O)C(=O)N[C@@H](CCC(N)=O)C(=O)N[C@@H](CCC(=O)O)C(=O)N[C@H](C(=O)N[C@@H](Cc1ccc(OP(=O)(O)O)cc1)C(=O)N[C@@H](CCC(=O)O)C(=O)N[C@H](C(=O)N[C@@H](CC(C)C)C(=O)N[C@@H](CCCCN)C(=O)N[C@@H](Cc1c[nH]cn1)C(=O)O)[C@@H](C)O)[C@@H](C)O)[C@@H](C)O [FCER1G p-ITAM peptide] (H-DGV[pY]TGLSTRNQET[pY]ETLKH-OH)
- IC50 [4, 12]: 12 nM

Compound: non-phosphorylated FCER1G ITAM peptide: non-phosphorylated FCER1G ITAM peptide used as control (DGVYTGLSTRNQETYETLKH-{FITC′})
- IC50 [4, 12]: > 1000 nM

Compound: O=c1cc(CO)oc(C(Nc2ccccn2)c2ccc(F)cc2)c1O (stereo not drawn) [compound 13]
- PPI disruption in GST-PD [5]: confirmed to disrupt the PPI
- Inhibition of SYK-GST / FCER1G-Flag interaction in pulldown [5]: able to inhibit the interaction
- Number of mass adducts on SYK-tSH2 [6]: between one and five
- solubility at 90 min [7]: 100 µM (≈ 34.2 µg/mL)
- Number of mass adducts on MSN [8]: one weak mass adduct

Compound: CC(C)n1c(S)nc2c1c(=O)n(C)c(=O)n2C [compound 43]
- BLI KD [9]: did not bind
- Kd ([9]; read-out: BLI KD): > 100000 nM
- Stability in DMSO stock solution [10]: had formed corresponding disulfide dimers in DMSO over time
- Covalent modification of SYK-tSH2 ([6]; older DMSO stock solutions): did not demonstrate covalent attachment
- IC50 [4]: 3000 ± 1700 nM

Compound: O=C1C=CC(=O)N1c1ccc(Sc2ccc(N3C(=O)C=CC3=O)cc2)cc1 [compound 24]
- PPI disruption in GST-PD [5]: confirmed to disrupt the PPI
- Inhibition of SYK-GST / FCER1G-Flag interaction in pulldown [5]: able to inhibit the interaction

Compound: O=c1cc(CO)oc(C(Nc2ccccn2)c2ccc3c(c2)OCO3)c1O (stereo not drawn) [compound 37]
- PPI disruption in GST-PD [5]: confirmed to disrupt the PPI
- Inhibition of SYK-GST / FCER1G-Flag interaction in pulldown [5]: able to inhibit the interaction
- Number of mass adducts on SYK-tSH2 [6]: between two and seven
- solubility at 90 min [7]: 100 µM (≈ 36.8 µg/mL)
- Number of mass adducts on MSN [8]: one weak mass adduct

Compound: FCER1G-phospho-ITAM[62–81] (peptide)
- IC50 [11]: 12 nM

Compound: FCER1G-nonphospho-ITAM[62–81]-FITC (peptide)
- IC50 [11]: > 1000 nM
